Assays:
[1] = Cell viability by CellTiter-Glo 2.0 (intracellular ATP content) in HepG2.117 cells; type: cell-based; settings: human, CellTiter-Glo 2.0, 3 days incubation
Protocol: (§1) The following assay procedure describes the HBV antiviral assay, using HepG2.117 cells, which carry a stably integrated genotype D HBV genome under the control of a Tet-off promoter, and intracellular HBV DNA quantification as endpoint. Cell viability is assessed in parallel by measuring the intracellular ATP content using CellTiter-Glo 2.0 (Promega).
(§2) On day 1, medium is removed from each well, the test articles are diluted in culture medium without doxcycyline and 100 μL was added to cell culture wells (9 concentrations, 4-fold dilution). For each plate, 6 untreated (merely DMSO) wells are included. The final concentration of DMSO in the culture medium is 2%. Each plate is prepared in duplicate (one for HBV DNA extraction, one for CellTiter-Glo 2.0 measurement). The cells are incubated at 37° C. and 5% CO2 for 3 days.
(§3) On day 4, cell viability is assessed using CellTiter-Glo 2.0 and cell lysates are prepared for HBV DNA extraction and subsequent quantification by qPCR.
Using the other plates, the cell viability is quantified by CellTiter-Glo 2.0 according to the manufacturer's manual. In brief, 100 μL of reagent solution is added to the culture plates and shaken for 2′. The plates are incubated at rt for 10 min and luminescence signal is subsequently measured on a VarioSkan Lux (ThermoFisher) plate reader.
(§4) Cell viability is calculated as follows: % Cell viability=(luminescence value of test sample)/(average luminescence value of 2% DMSO control)×100%. HBV DNA inhibition was calculated as follows: 100−(HBV DNA copy number of test sample)/(average HBV DNA copy number of 2% DMSO control)×100%. No normalization to entecavir is required due to the excellent dynamic window of this assay. The CC50, EC50 and EC9o values were determined by dose-response curves fitted using non-linear regression.

[2] = test system: HBV; assay: HBV-DNA antiviral assay using HepG2.117 cells; type: cell-based, HBV genotype D; settings: Hepatitis B virus, HepG2.117, 72 h
Protocol: as §1
On day 0, HepG2.117 cells (which are maintained in routine cell culture with doxycycline present in the medium at a final concentration of 1 μg/mL) are seeded in 96-well plates (white with clear bottom) at a density of 2.0×10^4 cells/well (0.1 mL/well) in medium without doxycycline to induce pgRNA transcription and subsequent formation of HBV particles. The cells are incubated at 37° C. and 5% CO2.
as §2, §3
HBV DNA Quantification by qPCR
Medium is removed from each well and 100 μL of 0.33% NP-40 in H2O was added to each well. Plates are sealed, incubated at 4° C. for 5 mins, vortexed extensively and centrifuged briefly. Next, 35 μL of lysate is added to 65 μL QuickExtract DNA Extraction Solution (Epicentre) in a PCR plate for each well. PCR plate is incubated at 65° C. for 6 mins, 98° C. for 2 mins and finally cooled to 4° C. HBV DNA is then quantified by qPCR with HBV-specific primers and probes as specified in Table 3 using the Bio-Rad SSOAdvanced Universal Probes Supermix on a CFX96 machine (Bio-Rad). The PCR cycle program consisted of 95° C. for 3 mins, followed by 40 cycles at 95° C. for 10 sec and 60° C. for 30 sec.
A DNA standard is prepared by dilution of an IDT gBlock corresponding to the amplicon with concentrations ranging from 10^2 to 10^8 copies/input (i.e., per 4 μL) and used to generate a standard curve by plotting Cq values vs. HBV DNA standard concentration. The quantity of HBV DNA in each sample is determined by interpolating from the standard curve.
as §4

Cc1cc(C)n(-c2nc3c(c(=O)n2-c2ccc(O[C@H]4C[C@H](O)C4)cc2)C[C@@H](C)N(C(=O)c2ccc(Br)c(C(F)(F)F)c2)C3)n1 [Compound 38, (R)-7-(4-bromo-3-(trifluoromethyl)benzoyl)-2-(3,5-dimethyl-1H-pyrazol-1-yl)-3-(4-((1r,3R)-3-hydroxycyclobutoxy)phenyl)-6-methyl-5,6,7,8-tetrahydropyrido[3,4-d]pyrimidin-4(3H)-one]
CC50 at 3 days [1]: > 500 nM
EC50 [2]: < 50 nM

Cc1cc(C)n(-c2nc3c(c(=O)n2-c2ccc(NC[C@@H](O)CO)nc2)C[C@@H](C)N(C(=O)c2ccc(Br)c(C(F)(F)F)c2)C3)n1 [Compound 30, (6R)-7-[4-bromo-3-(trifluoromethyl)benzoyl]-3-[6-[[(2R)-2,3-dihydroxypropyl]amino]-3-pyridyl]-2-(3,5-dimethylpyrazol-1-yl)-6-methyl-6,8-dihydro-5H-pyrido[3,4-d]pyrimidin-4-one]
CC50 at 3 days [1]: > 500 nM
EC50 [2]: 50 to 500 nM

Cc1cc(C)n(-c2nc3c(c(=O)n2-c2ccc(O)cc2)C[C@@H](C)N(C(=O)c2ccc(Br)c(C(F)(F)F)c2)C3)n1 [Compound 4, (R)-7-(4-bromo-3-(trifluoromethyl)benzoyl)-2-(3,5-dimethyl-1H-pyrazol-1-yl)-3-(4-hydroxyphenyl)-6-methyl-5,6,7,8-tetrahydropyrido[3,4-d]pyrimidin-4(3H)-one]
CC50 at 3 days [1]: > 500 nM
EC50 [2]: < 50 nM

Cc1cc(C)n(-c2nc3c(c(=O)n2-c2ccc(NC[C@H](C)O)nc2)C[C@@H](C)N(C(=O)c2ccc(Br)c(C(F)(F)F)c2)C3)n1 [Compound 29, (6R)-7-[4-bromo-3-(trifluoromethyl)benzoyl]-2-(3,5-dimethylpyrazol-1-yl)-3-[6-[[(2S)-2-hydroxypropyl]amino]-3-pyridyl]-6-methyl-6,8-dihydro-5H-pyrido[3,4-d]pyrimidin-4-one]
CC50 at 3 days [1]: > 500 nM
EC50 [2]: < 50 nM

Cc1cc(C)n(-c2nc3c(c(=O)n2-c2ccc(NC[C@@H](C)O)nc2)C[C@@H](C)N(C(=O)c2ccc(Br)c(C(F)(F)F)c2)C3)n1 [Compound 8, (R)-7-(4-bromo-3-(trifluoromethyl)benzoyl)-2-(3,5-dimethyl-1H-pyrazol-1-yl)-3-(6-(((R)-2-hydroxypropyl)amino)pyridin-3-yl)-6-methyl-5,6,7,8-tetrahydropyrido[3,4-d]pyrimidin-4(3H)-one]
CC50 at 3 days [1]: > 500 nM
EC50 [2]: < 50 nM

Cc1cc(C)n(-c2nc3c(c(=O)n2-c2ccc(OC[C@@H](C)O)cc2)C[C@@H](C)N(C(=O)c2ccc(Br)c(C(F)(F)F)c2)C3)n1 [Compound 14, (6R)-7-[4-bromo-3-(trifluoromethyl)benzoyl]-2-(3,5-dimethylpyrazol-1-yl)-3-[4-[(2R)-2-hydroxypropoxy]phenyl]-6-methyl-6,8-dihydro-5H-pyrido[3,4-d]pyrimidin-4-one]
CC50 at 3 days [1]: > 500 nM
EC50 [2]: < 50 nM

Cc1cc(C)n(-c2nc3c(c(=O)n2-c2ccc4c(ncn4C)n2)C[C@@H](C)N(C(=O)c2ccc(Br)c(C(F)(F)F)c2)C3)n1 [Compound 3, (R)-7-(4-bromo-3-(trifluoromethyl)benzoyl)-2-(3,5-dimethyl-1H-pyrazol-1-yl)-6-methyl-3-(1-methyl-1H-imidazo[4,5-b]pyridin-5-yl)-5,6,7,8-tetrahydropyrido[3,4-d]pyrimidin-4(3H)-one]
CC50 at 3 days [1]: > 500 nM
EC50 [2]: < 50 nM

Cc1cc(C)n(-c2nc3c(c(=O)n2-c2ccc(OC[C@H](C)OP(=O)(O)O)cc2)C[C@@H](C)N(C(=O)c2ccc(Br)c(C(F)(F)F)c2)C3)n1 [Compound 12, (S)-1-(4-((R)-7-(4-bromo-3-(trifluoromethyl)benzoyl)-2-(3,5-dimethyl-1H-pyrazol-1-yl)-6-methyl-4-oxo-5,6,7,8-tetrahydropyrido[3,4-d]pyrimidin-3(4H)-yl)phenoxy)propan-2-yl dihydrogen phosphate]
CC50 at 3 days [1]: > 500 nM
EC50 [2]: 50 to 500 nM

Cc1cc(C)n(-c2nc3c(c(=O)n2-c2ccc(N[C@H]4C[C@H](O)C4)nc2)C[C@@H](C)N(C(=O)c2ccc(Br)c(C(F)(F)F)c2)C3)n1 [Compound 36, (R)-7-(4-bromo-3-(trifluoromethyl)benzoyl)-2-(3,5-dimethyl-1H-pyrazol-1-yl)-3-(6-(((1r,3R)-3-hydroxycyclobutyl)amino)pyridin-3-yl)-6-methyl-5,6,7,8-tetrahydropyrido[3,4-d]pyrimidin-4(3H)-one]
CC50 at 3 days [1]: > 500 nM
EC50 [2]: < 50 nM

Cc1cc(C)n(-c2nc3c(c(=O)n2-c2ccc(NC(C)C)nc2)C[C@@H](C)N(C(=O)c2ccc(Br)c(C(F)(F)F)c2)C3)n1 [Compound 25, (6R)-7-[4-bromo-3-(trifluoromethyl)benzoyl]-2-(3,5-dimethylpyrazol-1-yl)-3-[6-(isopropylamino)-3-pyridyl]-6-methyl-6,8-dihydro-5H-pyrido[3,4-d]pyrimidin-4-one]
CC50 at 3 days [1]: > 500 nM
EC50 [2]: < 50 nM

Cc1cc(C)n(-c2nc3c(c(=O)n2-c2ccc(NC[C@H](O)CO)nc2)C[C@@H](C)N(C(=O)c2ccc(Br)c(C(F)(F)F)c2)C3)n1 [Compound 31, (6R)-7-[4-bromo-3-(trifluoromethyl)benzoyl]-3-[6-[[(2S)-2,3-dihydroxypropyl]amino]-3-pyridyl]-2-(3,5-dimethylpyrazol-1-yl)-6-methyl-6,8-dihydro-5H-pyrido[3,4-d]pyrimidin-4-one]
CC50 at 3 days [1]: > 500 nM
EC50 [2]: 50 to 500 nM

Cc1cc(C)n(-c2nc3c(c(=O)n2-c2ccc(OC[C@H](O)CO)cc2)C[C@@H](C)N(C(=O)c2ccc(Br)c(C(F)(F)F)c2)C3)n1 [Compound 7, (R)-7-(4-bromo-3-(trifluoromethyl)benzoyl)-3-(4-((R)-2,3-dihydroxypropoxy)phenyl)-2-(3,5-dimethyl-1H-pyrazol-1-yl)-6-methyl-5,6,7,8-tetrahydropyrido[3,4-d]pyrimidin-4(3H)-one]
CC50 at 3 days [1]: > 500 nM
EC50 [2]: < 50 nM

CNC(=O)c1ccc(-n2c(-n3nc(C)cc3C)nc3c(c2=O)C[C@@H](C)N(C(=O)c2ccc(Br)c(C(F)(F)F)c2)C3)cn1 [Compound 18, 5-[(6R)-7-[4-bromo-3-(trifluoromethyl)benzoyl]-2-(3,5-dimethylpyrazol-1-yl)-6-methyl-4-oxo-6,8-dihydro-5H-pyrido[3,4-d]pyrimidin-3-yl]-N-methyl-pyridine-2-carboxamide]
CC50 at 3 days [1]: > 500 nM
EC50 [2]: < 50 nM

Cc1cc(C)n(-c2nc3c(c(=O)n2-c2ccc(O[C@H]4C[C@@H](O)C4)nc2)C[C@@H](C)N(C(=O)c2ccc(Br)c(C(F)(F)F)c2)C3)n1 [Compound 39, (R)-7-(4-bromo-3-(trifluoromethyl)benzoyl)-2-(3,5-dimethyl-1H-pyrazol-1-yl)-3-(6-((1s,3S)-3-hydroxycyclobutoxy)pyridin-3-yl)-6-methyl-5,6,7,8-tetrahydropyrido[3,4-d]pyrimidin-4(3H)-one]
CC50 at 3 days [1]: > 500 nM
EC50 [2]: < 50 nM

Cc1cc(C)n(-c2nc3c(c(=O)n2-c2ccc(OC[C@@H](O)CO)cc2)C[C@@H](C)N(C(=O)c2ccc(Br)c(C(F)(F)F)c2)C3)n1 [Compound 6, (R)-7-(4-bromo-3-(trifluoromethyl)benzoyl)-3-(4-((S)-2,3-dihydroxypropoxy)phenyl)-2-(3,5-dimethyl-1H-pyrazol-1-yl)-6-methyl-5,6,7,8-tetrahydropyrido[3,4-d]pyrimidin-4(3H)-one]
CC50 at 3 days [1]: > 500 nM
EC50 [2]: 50 to 500 nM
